How the values were obtained:
conscious rats = test: Acute infusion of L-NAME during chronic infusion of purified porcine RLX; assay type: in vivo, rat; conditions: RLX 4 μg/hour s.c. day 5
Description: At least 7 days after the implantation of vascular and bladder catheters, osmotic minipumps containing either porcine RLX (4 μg/hour) or vehicle (Ringer's solution) were implanted in intact, female rats (n=7 and 6 rats, respectively). Renal function and MAP were measured on day 5 of relaxin infusion (three 30-minute urine and midpoint blood collections). Next, an infusion of L-NAME (2 μg/minute, a substrate competitive inhibitor of NO synthase) was administered intravenously (i.v.) by infusion pump (Model 200, KD Scientific, Boston, Mass.). Four 1-hour urine collections with midpoint blood samples were collected for the assessment of GFR, ERPF, and ERVR during the L-NAME administration. Identical procedures were performed on additional animals chronically administered porcine RLX (n=5) or vehicle (n=5), except that ANG II (3 ng/minute) was infused rather than L-NAME. Finally, another four, age-matched control rats were administered Ringer's solution instead of either L-NAME or ANG II on day 5 of porcine RLX infusion.
MAP, GFR, ERPF, and ERVR were measured at time zero (baseline), and at 60, 120, 180, and 240 minutes after administering L-NAME and either RLX or vehicle alone. Values represent the mean±SEM. L-NAME (Nω-nitro-L-arginine methyl ester) was infused at 2 μg/minute intravenously, and relaxin was administered at 4 μg/hour by osmotic minipump subcutaneously. There were 7 and 6 rats, respectively, in the RLX and vehicle groups. An asterisk denotes p<0.05; the symbol H denotes p<0.05 for RLX vs. vehicle.

THP-1 cells = test: THP-1 cells: morphology, 3H-thymidine uptake, metalloproteinase expression; assay type: cell-based, human
[1] = L-NAME 2 μg/minute i.v., 60 min
[2] = L-NAME 2 μg/minute i.v., 120 min
[3] = L-NAME 2 μg/minute i.v., 180 min
[4] = L-NAME 2 μg/minute i.v., 240 min

Q: How did the ERPF (conscious rats; Baseline before L-NAME) turn out when “Porcine RLX: lyophilized, purified porcine relaxin (Sherwood and O'Byrne 1974), dissolved in Ringer's solution” was run?
A: 10245

Q: And the ERVR (conscious rats; Baseline before L-NAME)?
A: 6.96

Q: What about the GFR (conscious rats; Baseline before L-NAME) of the same substance?
A: 3050

Q: What about the “MAP (mean arterial pressure)” value (conscious rats; Baseline before L-NAME) of the same substance?
A: 120

Q: And the ERPF (conscious rats; [1])?
A: 7520

Q: And the ERVR (conscious rats; [1])?
A: 11.00

Q: What about the GFR (conscious rats; [1]) of the same substance?
A: 2776

Q: What about the “MAP (mean arterial pressure)” value (conscious rats; [1]) of the same substance?
A: 135

Q: What about the ERPF (conscious rats; [2]) of the same substance?
A: 7030

Q: What about the ERVR (conscious rats; [2]) of the same substance?
A: 11.87

Q: What about the GFR (conscious rats; [2]) of the same substance?
A: 2653

Q: And the “MAP (mean arterial pressure)” value (conscious rats; [2])?
A: 136

Q: And the ERPF (conscious rats; [3])?
A: 6530

Q: And the ERVR (conscious rats; [3])?
A: 12.92

Q: What about the GFR (conscious rats; [3]) of the same substance?
A: 2498

Q: And the “MAP (mean arterial pressure)” value (conscious rats; [3])?
A: 136

Q: What about the ERPF (conscious rats; [4]) of the same substance?
A: 5973

Q: And the ERVR (conscious rats; [4])?
A: 14.13

Q: What about the GFR (conscious rats; [4]) of the same substance?
A: 2392

Q: And the “MAP (mean arterial pressure)” value (conscious rats; [4])?
A: 139

Q: Which “morphological changes, such as adherence to plastic or aggregation” value (THP-1 cells) does the source give for “rhRLX: recombinant human relaxin, identical in amino acid sequence to the product of the human H2 gene; A chain of 24, B chain of 29 amino acids” here?
A: no observable morphological changes

— patent US6723702B2, “Use of relaxin treat diseases related to vasoconstriction” (RAS Medical, Inc., priority 2000, dated 2004)
